Laboratory results published in the Deep4Chem optical property database.
Each block holds one compound with its values, some of them ahead of it.

Test: photoluminescence quantum yield (fraction); solvent given as SMILES

- photoluminescence quantum yield (in ClCCl): 0.37
Structure (SMILES): O=P1(c2ccccc2)C(c2ccccc2)=Cc2cc3ccccc3cc21 (stereo not given)

- photoluminescence quantum yield (in C1CCCCC1): 0.0004
- photoluminescence quantum yield (in CC#N): 0.027
- photoluminescence quantum yield (in CCO): 0.0009
- photoluminescence quantum yield (in c1ccccc1): 0.0078
Structure (SMILES): O=C1c2ccccc2-c2ccccc21

Structure (SMILES): O=P1(c2ccccc2)C2=C(c3ccccc31)[Si](c1ccccc1)(c1ccccc1)c1cc(N(c3ccccc3)c3ccccc3)ccc12 (stereo not given)
- photoluminescence quantum yield (in CC#N): 0.52
- photoluminescence quantum yield (in CO): 0.17
- photoluminescence quantum yield (in Cc1ccccc1): 0.86

- photoluminescence quantum yield (in ClCCl): 0.37
Structure (SMILES): Clc1ccc(C2=C(c3ccc(Cl)cc3)c3cccc4c3c(cc3nc5ccccc5nc34)O2)cc1

Structure (SMILES): Cn1ccc(-c2nc3ccccc3nc2/C=C/N2CCCC2)c1
- photoluminescence quantum yield (in C1CCCCC1): 0.184
- photoluminescence quantum yield (in C1CCOC1): 0.495
- photoluminescence quantum yield (in CC#N): 0.33
- photoluminescence quantum yield (in CC(C)=O): 0.414
- photoluminescence quantum yield (in CCO): 0.022
- photoluminescence quantum yield (in CO): 0.006
- photoluminescence quantum yield (in CS(C)=O): 0.325
- photoluminescence quantum yield (in Cc1ccccc1): 0.469
- photoluminescence quantum yield (in ClCCl): 0.611

- photoluminescence quantum yield (in ClCCl): 0.44
Structure (SMILES): CC(C)(C)NC(=O)c1ccc(-c2cc3ccccc3o2)c2ccc3c4ccccc4c4ccccc4c3c12

- photoluminescence quantum yield (in ClCCl): 0.52
Structure (SMILES): CCCC1=C(CCC)c2cccc3c2c(cc2nc4ccccc4nc23)O1

- photoluminescence quantum yield (in ClCCl): 0.01
Structure (SMILES): CN(C)c1ccc(/C=C/c2ncccn2)cc1

- photoluminescence quantum yield (in C1COCCO1): 0.034
Structure (SMILES): COc1ccc(C2=N/C(=C\c3ccccc3)C(=O)N2)cc1OC

- photoluminescence quantum yield (in ClC(Cl)Cl): 0.45
Structure (SMILES): CCCCC1(c2ccccc2)Nc2c(-c3ccc(OC)cc3)ccc(-c3ccc(OC)cc3)c2N=C1c1ccccc1 (stereo not given)

- photoluminescence quantum yield (in ClCCl): 0.78
Structure (SMILES): CCCCn1c(-c2ccc(-c3nnc(-c4ccc(-c5nc6c7ccccc7c7ccccc7c6n5CCCC)cc4)o3)cc2)nc2c3ccccc3c3ccccc3c21

- photoluminescence quantum yield (in O): 0.14
Structure (SMILES): CC1(C)C(=O)C=Cc2ccc(N)cc21

- photoluminescence quantum yield (in CO): 0.092
Structure (SMILES): CC1(C)C(/C=C/C2=C(c3ccc(C(=O)O)cc3)C(=C/C=C3/N(CCCCS(=O)(=O)[O-])c4ccc5ccccc5c4C3(C)C)/CCC2)=[N+](CCCCS(=O)(=O)[O-])c2ccc3ccccc3c21

- photoluminescence quantum yield (in ClC(Cl)Cl): 0.35
Structure (SMILES): CCCCCCCCCCOc1cc(OCCCCCCCCCC)cc(C2=C3C(C)=CC(/C=C/c4ccc(OC)cc4)=[N+]3[B-](F)(F)n3c(/C=C/c4ccc(OC)cc4)cc(C=Cc4ccc(OC)cc4)c32)c1

- photoluminescence quantum yield (in C1COCCO1): 0.02
Structure (SMILES): COc1ccc(C2=N/C(=C\c3ccccc3)C(=O)O2)cc1OC

- photoluminescence quantum yield (in CCO): 0.01
- photoluminescence quantum yield (in CS(C)=O): 0.017
- photoluminescence quantum yield (in O): 0.011
Structure (SMILES): CC1(C)C(/C=C/C=C/c2cc3ccc(O)cc3oc2=O)=[N+](CCCS(=O)(=O)[O-])c2ccc(S(=O)(=O)O)cc21

- photoluminescence quantum yield (in c1cc(-c2cccc(-n3c4ccccc4c4ccccc43)c2)cc(-n2c3ccccc3c3ccccc32)c1): 0.296
Structure (SMILES): O=C1c2ccccc2S(=O)(=O)c2ccc(-n3c4ccccc4c4ccccc43)cc21

Structure (SMILES): Cc1ccccc1C(=O)NN1C2=C(CC3=C1CC(C)(C)CC3=O)C(=O)CC(C)(C)C2
- photoluminescence quantum yield (in C1CCOC1): 0.26
- photoluminescence quantum yield (in CC#N): 0.7
- photoluminescence quantum yield (in CC(C)=O): 0.53
- photoluminescence quantum yield (in CCCCCO): 0.5
- photoluminescence quantum yield (in CO): 0.3
- photoluminescence quantum yield (in ClC(Cl)Cl): 0.64
- photoluminescence quantum yield (in ClCCl): 0.47

- photoluminescence quantum yield (in O): 0.27
Structure (SMILES): CC[n+]1nc2cc3c4c(c2c2cc(C)ccc21)CCCN4CCC3

- photoluminescence quantum yield (in C1CCCCC1): 0.3
Structure (SMILES): C[Si](C)(C)c1cccc2ccccc12

- photoluminescence quantum yield (in ClCCl): 0.37
Structure (SMILES): CN(C)c1cccc(/C=C/c2ncc(-c3ccc(OCc4ccccc4)c(OCc4ccccc4)c3)o2)c1

- photoluminescence quantum yield (in ClCCl): 0.03
Structure (SMILES): C(#Cc1ncnc2ccccc12)c1ccc(N(c2ccccc2)c2ccccc2)cc1

- photoluminescence quantum yield (in C1COCCO1): 0.158
Structure (SMILES): N#Cc1ccc(/C=C2\N=C(c3ccccc3)NC2=O)cc1

- photoluminescence quantum yield (in ClC(Cl)Cl): 0.074
Structure (SMILES): FC(F)(F)c1ccc2oc3nc4oc5ccc(-n6c7ccccc7c7ccccc76)cc5c4cc3c2c1

Structure (SMILES): O=[N+]([O-])c1ccc(S(=O)(=O)Nc2ccc(C#Cc3ccc4ccc5ccc(C#Cc6ccc(NS(=O)(=O)c7ccc([N+](=O)[O-])cc7[N+](=O)[O-])cc6)c6ccc3c4c56)cc2)c([N+](=O)[O-])c1
- photoluminescence quantum yield (in CO): 0.003

Structure (SMILES): Nc1cccc2ccccc12
- photoluminescence quantum yield (in C1CCCCC1): 0.6

- photoluminescence quantum yield (in ClCCl): 0.206
Structure (SMILES): c1ccc(-n2c(-c3ccc(N(c4ccc(-c5ccc(N(c6ccc(-c7nc8c9ccccc9c9ccccc9c8n7-c7ccccc7)cc6)c6ccc(-c7nc8c9ccccc9c9ccccc9c8n7-c7ccccc7)cc6)cc5)cc4)c4ccc(-c5nc6c7ccccc7c7ccccc7c6n5-c5ccccc5)cc4)cc3)nc3c4ccccc4c4ccccc4c32)cc1

- photoluminescence quantum yield (in C1CCCCC1): 0.7
Structure (SMILES): CB1C=Cc2ccc3ccccc3c2N1

- photoluminescence quantum yield (in CS(C)=O): 0.91
Structure (SMILES): Fc1ccc2sc3nc(-c4ccccc4)sc3c2c1

Structure (SMILES): CC1(C)c2ccccc2N(c2ccc(-c3nc4cccc5c4n3-c3ccccc3C5(C)C)cc2)c2ccccc21
- photoluminescence quantum yield (in Cc1ccccc1): 0.34
- photoluminescence quantum yield (in O=P(c1ccccc1)(c1ccccc1)c1ccccc1Oc1ccccc1P(=O)(c1ccccc1)c1ccccc1): 0.51

- photoluminescence quantum yield (in CO): 0.41
Structure (SMILES): c1ccc(N(c2ccccc2)c2ccc(-c3cnc(-c4ccc(N(c5ccccc5)c5ccccc5)cc4)s3)cc2)cc1

Structure (SMILES): N#CC1=c2c3cccc4cccc(c43)n2[B-](F)(F)[n+]2ccccc21
- photoluminescence quantum yield (in C1CCOC1): 0.86
- photoluminescence quantum yield (in CC#N): 0.96
- photoluminescence quantum yield (in CCCCCC): 0.75
- photoluminescence quantum yield (in Cc1ccccc1): 0.75
- photoluminescence quantum yield (in ClCCl): 0.88

- photoluminescence quantum yield (in CCCCCC): 0.34
Structure (SMILES): COc1ccc2c(c1)N(c1ccccc1-c1ccccc1)c1cc3c(cc1=N2)Oc1c(cc(C(C)(C)C)cc1C(C)(C)C)N=3

- photoluminescence quantum yield (in ClCCl): 0.54
Structure (SMILES): COc1cc(-c2ncc(-c3ccncc3)o2)cc(OC)c1OC

- photoluminescence quantum yield (in CO): 0.52
- photoluminescence quantum yield (in O): 0.28
Structure (SMILES): CC[N+]1=C(/C=C/C=C/C=C/C=C2/N(CCCCCC(=O)O)c3ccc(S(=O)(=O)[O-])cc3C2(C)C)C(C)(C)c2cc(S(=O)(=O)[O-])ccc21

- photoluminescence quantum yield (in ClCCl): 0.1
Structure (SMILES): COc1ccc2c(c1)c1cc(OC)ccc1c1c2c2c(C(=O)NC(C)(C)C)ccc(C(=O)NC(C)(C)C)c2c2c3ccc(OC)cc3c3cc(OC)ccc3c21

- photoluminescence quantum yield (in CC#N): 0.49
- photoluminescence quantum yield (in CO): 0.54
- photoluminescence quantum yield (in ClCCl): 0.59
- photoluminescence quantum yield (in OCC(O)CO): 0.47
Structure (SMILES): CCCn1c2cccc3oc4cccc5oc6cccc1c6[c+](c45)c32

- photoluminescence quantum yield (in ClCCl): 0.03
Structure (SMILES): CC(=O)c1ccc(-c2cc(C)[o+]c(C)c2)cc1

Structure (SMILES): Cc1ccc(-n2c(-c3ccccc3NS(=O)(=O)c3ccc(C)cc3)nc3c4ccccc4c4ccccc4c32)cc1
- photoluminescence quantum yield (in Cc1ccccc1): 0.007

- photoluminescence quantum yield (in C1CCOC1): 0.006
- photoluminescence quantum yield (in CC#N): 0.004
- photoluminescence quantum yield (in CCO): 0.043
- photoluminescence quantum yield (in CS(C)=O): 0.025
Structure (SMILES): CCOC(=O)c1ccccc1-c1c2ccc(=O)cc-2oc2cc(OC(=O)[C@H](CSCc3ccc(C)cc3)NC(=O)OC(C)(C)C)ccc12

- photoluminescence quantum yield (in CO): 0.52
Structure (SMILES): Cc1cc(C)c(B(c2ccsc2-c2sccc2P(=O)(c2ccccc2)c2ccccc2)c2c(C)cc(C)cc2C)c(C)c1

- photoluminescence quantum yield (in O): 0.28
Structure (SMILES): COc1cc(-c2cc(N3CCCCC3)c(C#N)c3c2-c2cccc4cccc-3c24)cc(OC)c1OC

- photoluminescence quantum yield (in CS(C)=O): 0.11
Structure (SMILES): COc1cccc2cc(-c3cc4cccc(OC)c4oc3=O)oc12

Structure (SMILES): O=[N+]([O-])c1ccc([N+]2=Cc3ccc4c5c(ccc4c3O[B-]2(c2ccccc2)c2ccccc2)C=[N+](c2ccc([N+](=O)[O-])cc2)[B-](c2ccccc2)(c2ccccc2)O5)cc1
- photoluminescence quantum yield (in Cc1ccccc1): 0.63
- photoluminescence quantum yield (in ClCCl): 0.48

- photoluminescence quantum yield (in ClCCl): 0.01
Structure (SMILES): C(=C\c1ccncn1)/c1ccc(-c2ccco2)cc1

- photoluminescence quantum yield (in CO): 0.52
Structure (SMILES): N#Cc1ccc(-c2nc(-c3ccccc3)c(-c3ccccc3)[nH]2)cc1

- photoluminescence quantum yield (in ClCCl): 0.76
Structure (SMILES): O=S1(=O)C2=C(c3ccccc31)C1(C3=C(c4ccccc41)S(=O)(=O)c1ccccc13)c1ccccc12

Structure (SMILES): c1ccc([B-]2(c3ccccc3)Oc3ccc4ccccc4c3-c3c4ccccc4nc[n+]32)cc1
- photoluminescence quantum yield (in Cc1ccccc1): 0.25

- photoluminescence quantum yield (in C1COCCO1): 0.068
- photoluminescence quantum yield (in CC#N): 0.011
- photoluminescence quantum yield (in CCCCOCCCC): 0.12
- photoluminescence quantum yield (in CCOC(C)=O): 0.014
Structure (SMILES): Clc1nc(Cl)nc(Nc2ccc3c4cccc5cccc(c6cccc2c63)c54)n1

- photoluminescence quantum yield (in ClCCl): 0.0026
Structure (SMILES): CC(=O)c1c(N[C@@H](Cc2ccccc2)C(=O)O)c2ccc(N(C)C)cc2oc1=O

- photoluminescence quantum yield (in CC#N): 0.015
Structure (SMILES): COc1ccc(-c2csc(/C(C#N)=C/c3ccc(C(F)(F)F)cc3)n2)cc1

- photoluminescence quantum yield (in ClCCl): 0.233
Structure (SMILES): CC(C)(C)C1CCC(=CS/C=C/c2ccc(-c3ccc(/C=C/SC=C4CCC(C(C)(C)C)CC4)cc3)cc2)CC1 (stereo not given)

- photoluminescence quantum yield (in ClCCl): 0.9
Structure (SMILES): CCCCN1c2ccccc2B(c2ccccc2C(F)(F)F)c2ccccc21

- photoluminescence quantum yield (in ClC(Cl)Cl): 0.46
Structure (SMILES): CN(C)c1ccc(-c2cc(-c3cccs3)nc(-c3ccccc3)n2)cc1

- photoluminescence quantum yield (in CC#N): 0.67
Structure (SMILES): Cc1ccc(-c2ccc(/C=C/c3ccccc3)cn2)nc1

- photoluminescence quantum yield (in CC#N): 0.311
Structure (SMILES): CC(C)(C)Nc1oc(C=Cc2ccccc2)c(C(=O)OC(C)(C)C)c1C(=O)OC(C)(C)C

- photoluminescence quantum yield (in CO): 0.33
- photoluminescence quantum yield (in ClC(Cl)Cl): 0.56
- photoluminescence quantum yield (in O): 0.039
Structure (SMILES): COCCOCCOCCNc1cc2c3c(c(NCCOCCOCCOC)cc4c3c1C(=O)N(CCOCCOCCOC)C4=O)C(=O)N(CCOCCOCCOC)C2=O

Structure (SMILES): Brc1ccc(-c2nc(-c3ccc(C#Cc4ccc(-n5c6ccccc6c6ccccc65)cc4)cc3)nc(-c3ccc(C#Cc4ccc(-n5c6ccccc6c6ccccc65)cc4)cc3)n2)cc1
- photoluminescence quantum yield (in C1CCOC1): 0.68
- photoluminescence quantum yield (in CC#N): 0.02
- photoluminescence quantum yield (in CCCCCC): 0.9
- photoluminescence quantum yield (in Cc1ccccc1): 0.96
- photoluminescence quantum yield (in ClCCl): 0.65

- photoluminescence quantum yield (in ClCCl): 0.002
Structure (SMILES): COc1ccc(Oc2ccc3c4c(cccc24)C(=O)N(c2c(C(C)C)cccc2C(C)C)C3=O)cc1

- photoluminescence quantum yield (in ClCCl): 0.35
Structure (SMILES): C(=C\c1cnc2ccccc2n1)/c1ccc(-c2ccc(N(c3ccccc3)c3ccccc3)cc2)cc1

- photoluminescence quantum yield (in CC#N): 0.16
Structure (SMILES): C[C@]12SC(=O)C=C1c1nc(-c3ccc(O)cc3)[nH]c1C1=CC(=O)S[C@@]12C

- photoluminescence quantum yield (in ClCCl): 0.24
Structure (SMILES): S=P1(c2ccccc2)c2cccc3c4c5ccccc5c5ccccc5c4c4ccc1n4c23 (stereo not given)

- photoluminescence quantum yield (in ClCCl): 0.04
Structure (SMILES): CCN(CC)c1ccc2c(c1)oc(=O)c1c(=O)oc3cc(C#Cc4ccc(N(C)C)cc4)ccc3c12

- photoluminescence quantum yield (in C1COCCO1): 0.14
- photoluminescence quantum yield (in CC#N): 0.14
- photoluminescence quantum yield (in CO): 0.11
- photoluminescence quantum yield (in ClCCCl): 0.12
Structure (SMILES): CCn1c(=O)nc2n(C)c3cc(C)ccc3nc-2c1=O
